Numbered stars: 1 amine (or outer) side, 2 acyl side, 3 side chain; on linkers, the order of the positions; unused ones are H or OH. Bridge positions count the residues as written; N and C are the ends. Square brackets hold non-standard residues; d marks the D form. Peptide text beside a SMILES is read from it. * marks the point of attachment. 2Nal = N[C@@H](Cc1ccc2ccccc2c1)C(=O)O; Benzoyl(4-F) = O=C(c1ccc(F)cc1)*; Cit = NC(=O)NCCC[C@H](N)C(=O)O; X1 = O=C(CCC[*:2])[*:1]
Tests used:
[1] = Half life in human; format: ADME
[2] = Subcutaneous bioavailability in human; conditions: in vivo, sc
[3] = Plasma protein binding in human; format: ADME, cell-free; conditions: read-out: PPB (converted)
[4] = Oral bioavailability in human; format: ADME, organism-based; conditions: in vivo
[5] = Terminal half life in human; format: ADME; conditions: read-out: beta t1/2 (converted)
[6] = Terminal elimination half life in human; format: ADME
[7] = Half life in human at 0.5 mg/kg, iv; format: ADME, organism-based; conditions: in vivo
[8] = Half life in human at 0.3 mg/kg, iv; format: ADME, organism-based; conditions: in vivo
[9] = Half life in iv dosed human; format: ADME, organism-based; conditions: in vivo
[10] = Half life in human plasma; format: ADME, cell-free
[11] = Plasma protein binding in human at 0.2 ug/ml; format: ADME, cell-free; conditions: at 0.2 µg/mL, read-out: PPB

Compound: NC(N)=NCCC[C@@H](N)C(=O)N[C@@H](CCCN=C(N)N)C(=O)N1CCC[C@H]1C(=O)N1C[C@H](O)C[C@H]1C(=O)NCC(=O)N[C@@H](Cc1cccs1)C(=O)N[C@@H](CO)C(=O)N1Cc2ccccc2C[C@@H]1C(=O)N1[C@H](C(=O)N[C@@H](CCCN=C(N)N)C(=O)O)C[C@@H]2CCCC[C@@H]21 [ICATIBANT]
- half-life [1]: 1.4 h
- subcutaneous bioavailability [2]: 97%

Compound: CC(=O)N[C@@H](CCCNC(=N)N)C(=O)N[C@H]1CSSC[C@@H](C(N)=O)NC(=O)[C@H](Cc2c[nH]c3ccccc23)NC(=O)[C@H](CCCNC(=N)N)NC(=O)[C@@H](Cc2ccccc2)NC(=O)[C@H](Cc2c[nH]cn2)NC(=O)[C@@H](C)NC1=O [SETMELANOTIDE]
- half-life [1]: 11 h
- fraction unbound [3]: 0.209

Compound: CC[C@H](C)[C@H](NC(=O)[C@H](CCC(=O)O)NC(=O)[C@H](CO)NC(=O)[C@@H](NC(=O)[C@@H](N)CO)C(C)C)C(=O)N[C@@H](CCC(N)=O)C(=O)N[C@@H](CC(C)C)C(=O)N[C@@H](CCSC)C(=O)N[C@@H](Cc1cnc[nH]1)C(=O)N[C@@H](CC(N)=O)C(=O)N[C@@H](CC(C)C)C(=O)NCC(=O)N[C@@H](CCCCN)C(=O)N[C@@H](Cc1cnc[nH]1)C(=O)N[C@@H](CC(C)C)C(=O)N[C@@H](CC(N)=O)C(=O)N[C@@H](CO)C(=O)N[C@@H](CCSC)C(=O)N[C@@H](CCC(=O)O)C(=O)N[C@@H](CCCN=C(N)N)C(=O)N[C@H](C(=O)N[C@@H](CCC(=O)O)C(=O)N[C@@H](Cc1c[nH]c2ccccc12)C(=O)N[C@@H](CC(C)C)C(=O)N[C@@H](CCCN=C(N)N)C(=O)N[C@@H](CCCCN)C(=O)N[C@@H](CCCCN)C(=O)N[C@@H](CC(C)C)C(=O)N[C@@H](CCC(N)=O)C(=O)N[C@@H](CC(=O)O)C(=O)N[C@H](C(=O)N[C@@H](Cc1cnc[nH]1)C(=O)N[C@@H](CC(N)=O)C(=O)N[C@@H](Cc1ccccc1)C(=O)O)C(C)C)C(C)C [TERIPARATIDE]
- half-life [1]: 1 h
- subcutaneous bioavailability [2]: 95%

Compound: TESAMORELIN
- t1/2 [1]: 0.433 h
- F [4]: < 4%

Compound: NCCCC[C@H](NC(=O)[C@@H]1CCCN1C(=O)[C@@H]1CSSC[C@H](NC(=O)CNC(=O)CNC(=O)CN)C(=O)N[C@@H](Cc2ccc(O)cc2)C(=O)N[C@@H](Cc2ccccc2)C(=O)N[C@@H](CCC(N)=O)C(=O)N[C@@H](CC(N)=O)C(=O)N1)C(=O)NCC(N)=O [TERLIPRESSIN]
- half-life [5]: 0.9 h

Compound: LIXISENATIDE
- beta t1/2 [6]: 3 h

Compound: N=C(N)NCCC[C@H](NC(=O)[C@@H]1CSSC[C@H](NC(=O)[C@H](Cc2ccc3ccccc3c2)NC(=O)[C@H](CCCNC(=N)N)NC(=O)[C@H](CCCNC(=N)N)NC(=O)c2ccc(F)cc2)C(=O)N[C@@H](Cc2ccc(O)cc2)C(=O)N[C@@H](CCCNC(N)=O)C(=O)N[C@@H](CCCCN)C(=O)N[C@@H](CCCCN)C(=O)N2CCC[C@H]2C(=O)N[C@@H](Cc2ccc(O)cc2)C(=O)N[C@@H](CCCNC(=N)N)C(=O)N[C@@H](CCCNC(N)=O)C(=O)N1)C(N)=O ({Benzoyl(4-F)}-RR[2Nal]CY[Cit]KKPYR[Cit]CR-NH2; disulfide 4-13)
- half-life [1]: 2 h
- fraction unbound [3]: < 0.01

Compound: C/C=C1\NC(=O)[C@H]2CSSCC/C=C/[C@H](CC(=O)N[C@H](C(C)C)C(=O)N2)OC(=O)[C@H](C(C)C)NC1=O [ROMIDEPSIN]
- half-life [7]: 3 h

Compound: NESIRITIDE
- t1/2 [8]: 0.3 h

Compound: VOSORITIDE
- t1/2 [1]: 0.35 h

Compound: CC(=O)N[C@H](CSSC[C@H](N)C(=O)O)C(=O)N[C@H](C)C(=O)N[C@H](CCCNC(=N)N)C(=O)N[C@H](CCCNC(=N)N)C(=O)N[C@H](CCCNC(=N)N)C(=O)N[C@H](C)C(=O)N[C@H](CCCNC(=N)N)C(N)=O [ETELCALCETIDE]
- half-life [9]: 72 h

Compound: CC[C@H](C)[C@H](NC(=O)[C@H](CO)NC(=O)[C@H](CC(N)=O)NC(=O)[C@H](CC(C)C)NC(=O)[C@H](Cc1ccc(O)cc1)NC(=O)[C@H](CCCCN)NC(=O)[C@H](CCCCN)NC(=O)[C@@H](NC(=O)[C@H](C)NC(=O)[C@H](CCSC)NC(=O)[C@H](CCC(N)=O)NC(=O)[C@H](CCCCN)NC(=O)[C@H](CCCN=C(N)N)NC(=O)[C@H](CC(C)C)NC(=O)[C@H](CCCN=C(N)N)NC(=O)[C@@H](NC(=O)[C@H](Cc1ccc(O)cc1)NC(=O)[C@H](CC(N)=O)NC(=O)[C@H](CC(=O)O)NC(=O)[C@@H](NC(=O)[C@H](Cc1ccccc1)NC(=O)[C@@H](NC(=O)[C@H](C)NC(=O)[C@H](CC(=O)O)NC(=O)[C@H](CO)NC(=O)[C@@H](N)Cc1c[nH]cn1)C(C)C)[C@@H](C)O)[C@@H](C)O)C(C)C)C(=O)N[C@@H](CC(C)C)C(=O)N[C@@H](CC(N)=O)C(N)=O
- half-life [1]: 0.0167 h

Compound: CC[C@H](C)[C@H](NC(=O)[C@H](Cc1ccccc1)NC(=O)[C@H](CC(=O)O)NC(=O)[C@H](CCCNC(=N)N)NC(=O)[C@H](C)NC(=O)[C@H](C)NC(=O)[C@H](CC(C)C)NC(=O)[C@H](CC(N)=O)NC(=O)[C@H](CC(=O)O)NC(=O)[C@H](CC(C)C)NC(=O)[C@@H](NC(=O)[C@@H](NC(=O)[C@H](CC(N)=O)NC(=O)[C@H](CCSC)NC(=O)[C@H](CCC(=O)O)NC(=O)[C@H](CC(=O)O)NC(=O)[C@H](CO)NC(=O)[C@H](Cc1ccccc1)NC(=O)[C@H](CO)NC(=O)CNC(=O)[C@H](CC(=O)O)NC(=O)CNC(=O)[C@@H](N)Cc1c[nH]cn1)[C@@H](C)O)[C@@H](C)CC)C(=O)N[C@@H](CC(N)=O)C(=O)N[C@@H](Cc1c[nH]c2ccccc12)C(=O)N[C@@H](CC(C)C)C(=O)N[C@H](C(=O)N[C@@H](CCC(N)=O)C(=O)N[C@H](C(=O)N[C@@H](CCCCN)C(=O)N[C@H](C(=O)N[C@H](C(=O)N[C@@H](CC(=O)O)C(=O)O)[C@@H](C)O)[C@@H](C)CC)[C@@H](C)O)[C@@H](C)CC [TEDUGLUTIDE]
- half-life [5]: 1.3 h
- subcutaneous bioavailability [2]: 88%

Compound: CC[C@H](C)[C@@H]1NC(=O)[C@H](Cc2ccc(OC)cc2)NC(=O)CCCSC[C@@H](C(=O)N2CCC[C@H]2C(=O)N[C@@H](CC(C)C)C(=O)NCC(N)=O)NC(=O)[C@H](CC(N)=O)NC(=O)[C@H](CCC(N)=O)NC1=O [CARBETOCIN] (Y(Me)IQNCPLG-NH2; linker N-5 via X1)
- half-life [10]: 0.667 h

Compound: CSCC[C@@H]1NC(=O)[C@H](CC(C)C)NC(=O)[C@H](CCCNC(=N)N)NC(=O)[C@H](CO)NC(=O)[C@@H]2CSSC[C@@H]3NC(=O)[C@H](CO)NC(=O)CNC(=O)[C@H]([C@@H](C)O)NC(=O)[C@H](CSSC[C@H](N)C(=O)N[C@@H](CCCCN)C(=O)NCC(=O)N[C@@H](CCCCN)C(=O)NCC(=O)N[C@@H](C)C(=O)N[C@@H](CCCCN)C(=O)N2)NC(=O)[C@H](CSSC[C@@H](C(N)=O)NC(=O)[C@H](CCCCN)NC(=O)CNC(=O)[C@H](CO)NC(=O)[C@H](CCCNC(=N)N)NC3=O)NC(=O)[C@H](CC(=O)O)NC(=O)[C@H](Cc2ccc(O)cc2)NC1=O [ZICONOTIDE]
- fraction unbound at 0.2 ug/ml [11]: 0.5
